# In patent US10842749B2, “Compositions and methods of treating therapy resistant cancer and uses thereof” (priority 2012, dated 2020):
# Assays:
# [1] = Tissue distribution of Dox by HPLC in MDA-MB-231 lung metastasis mice
# Protocol: They were sacrificed 1 hour, 1 day, or 7 days later. Dox concentration in major organs was analyzed by HPLC.
# Quantitation of doxorubicin was performed using Daunorubicin (Dau, Sigma) as an internal standard^49. Briefly, tissues were homogenized in PBS (100 mg tissue/330 μL PBS), and then mixed with 10 μL Dau (50 μg/mL). A 4-fold volume of the extraction solution containing chloroform and methanol (3/1, v/v) was subsequently added. The mixture was vortexed for 1 minute, and centrifuged at 13,000 rpm for 10 minutes to separate the aqueous and organic phases. The organic phase was collected, and the solvent was evaporated at 25° C. under a flow of nitrogen. The extract was dissolved in 100 μL methanol, and a 10 μL aliquot was used for HPLC analysis.
# [2] = Heart H&E staining and body weight in treated tumor mice
# Protocol: FIGS. 4A-4C show H&E staining of heart tissues in mice treated with 6 mg/kg free Dox, Doxil, or porous silicon/pDox for 6 weeks.
# (§1) Applicants selected the murine model of MDA-MB-231 human breast cancer lung metastasis, widely used to study mechanism of pathology and for drug development^37-39, to evaluate therapeutic efficacy of porous silicon/pDox. […] Applicants treated the tumor-bearing mice with free pDox, porous silicon/pDox, and the clinically available drugs doxorubicin and Doxil, beginning one week after tumor inoculation and lasting for 6 weeks. Drugs were dosed biweekly at 6 mg/kg to mice in all treatment groups (10 mice per group) except free Dox.
# [3] = test system: MDA-MB-231 human breast cancer lung metastasis; assay: Murine model of MDA-MB-231 human breast cancer lung metastasis; assay type: in vivo, nude mice; settings: Dox 3 mg/kg weekly, 6 weeks
# Protocol: as §1
# 4T1 lung metastasis [4] = assay: 4T1 lung metastasis model, follow-up study (weekly x 4 after surgery)
# Protocol: 4T1 tumor cells were inoculated in the fourth mammary gland fat pad of female BALB/c mice. The primary tumors were surgically removed when they reached 250-300 mm3, and mice (n=10 mice/group) were treated weekly with 6 mg/kg Dox, Doxil, pDox, or Porous silicon/pDox for four consecutive weeks. Tumor growth was monitored by tracking bioluminescent intensity with the Xenogene IVIS-200 imaging system.
# To generate the mouse 4T1 lung metastasis model, BALB/c mice were inoculated with 4T1 cells (5×10^4 cells/mouse) into the mammary gland fat pad. […] In the follow-up study, 4T1 cells that were engineered to express luciferase and GFP, and were inoculated into the mammary gland fat pads of female BALB/c mice. The primary tumors were surgically removed once they reached 250-300 mm^3. Mice were treated with 6 mg/kg of the therapeutic agents weekly for 4 weeks, and subsequently maintained to assess survival benefit from treatments.
# To evaluate drug dosing requirements and sustainability after administration, Applicants applied a different drug regimen to BALB/c mice bearing 4T1 tumors. Applicants performed complete surgical removal of the primary tumors once they reached 250-300 mm3, and confirmed that the extraction was thorough by the lack of bioluminescence from the luciferase- and GFP-bearing mammary gland fat pads (FIG. 5A). […]
# 4T1 lung metastasis [5] = assay: 4T1 lung metastasis model, pilot study (two treatments); assay type: in vivo, BALB/c mice; settings: 6 mg/kg on day of surgery and 10 days later
# From the text: All mice were sacrificed three weeks after the first treatment, and lung tissues were examined for tumor metastasis. […] The arrows indicate tumor nodules in the lung (FIG. 5F-2).
# Thus the 4T1 syngeneic tumor mice represent a second Triple Negative Breast Cancer (TNBC) tumor model in this study. When inoculated into the mammary gland fat pad of BALB/c mice, 4T1 tumor cells formed rapidly growing primary tumors. If left untreated, all of the mice would eventually develop lung metastasis from primary tumors. In a pilot study, surgical removal of primary tumors (about 400 mm^3 in size) was performed, and then PBS, Dox, pDox, or Porous silicon/pDox was administered once immediately after surgery and again 10 days post-surgery.
# MDA-MB-231 cells = assay: Intracellular trafficking of Dox and pDox; assay type: cell-based, human; settings: fluorescence microscopy
# Protocol: FIGS. 2A-2H show vesicular transport of pDox in tumor cells and effective killing of tumor cells carrying an overexpressed multidrug resistance gene mediated by pDox. […] The presence of doxorubicin (red) in subcellular organelle was visualized by fluorescence microscopy. Nuclei were stained blue with DAPI and late endosomes/lysosomes were stained green with LysoTracker. Nuclear accumulation could be detected as early as 15 minutes after treatment of cells with Dox, while co-localization of Dox with LysoTracker was apparent in pDox treated cells 15 minutes and 1 hour after treatment. […] The cells were sensitive to pDox, but resistant to treatment with free Dox. FIG. 2D depicts fluorescence images of subcellular organelles. Nuclei were stained in blue DAPI and lysosomes were stained in green with LysoTracker. […]
# Applicants conducted studies to compare cellular uptake and subcellular trafficking of free Dox and pDox nanoparticles in MDA-MB-231 cells. […] However, no nuclear accumulation was detected in the pDox-treated cells at the same time (FIG. 2A and FIG. 2D). The red fluorescence from pDox could be co-localized with the green LysoTracker-positive subcellular organelles beginning at 15 minutes, and reached a high level one hour after pDox treatment (FIG. 2A and FIG. 2D), indicating pDox entered tumor cells via vesicular transport. […]
# MDA-MB-231/MDR cells = assay: Cell viability of MDR1-transfected MDA-MB-231/MDR cells; assay type: cell-based, human; settings: cell viability 72 hours after treatment
# Protocol: FIGS. 2A-2H show vesicular transport of pDox in tumor cells and effective killing of tumor cells carrying an overexpressed multidrug resistance gene mediated by pDox. […] The presence of doxorubicin (red) in subcellular organelle was visualized by fluorescence microscopy. Nuclei were stained blue with DAPI and late endosomes/lysosomes were stained green with LysoTracker. Nuclear accumulation could be detected as early as 15 minutes after treatment of cells with Dox, while co-localization of Dox with LysoTracker was apparent in pDox treated cells 15 minutes and 1 hour after treatment. […] The cells were sensitive to pDox, but resistant to treatment with free Dox. FIG. 2D depicts fluorescence images of subcellular organelles. Nuclei were stained in blue DAPI and lysosomes were stained in green with LysoTracker. Images of Dox, nuclei and lysosomes were merged to show subcellular localization of Dox at different time points.
# Many breast cancer patients are resistant to chemotherapy due to drug efflux. About 25-50% of previously untreated breast cancers express the MDR1 gene encoding p-glycoprotein, one of the drug efflux pump proteins^17. Overexpression of MDR1 has also been attributed to acquired resistance to anthracyclines and cross-resistance to other chemotherapy drugs in the clinic^15. […]
smiles,measurement,setting,value
"COc1cccc2c1C(=O)c1c(O)c3c(c(O)c1C2=O)C[C@@](O)(C(=O)CO)C[C@@H]3O[C@H]1C[C@H](N)[C@H](O)[C@H](C)O1 [Dox, doxorubicin]",Dox concentration in the heart,"[1]; 6 mg/kg i.v., one hour after dosing",over 10 μg/g organ
same,plasma Dox,[1]; 1 hour post-dosing,barely detectable
same,heart histology (H&E),[2]; 6 mg/kg biweekly,deformation of myocardial fibers
same,body weight change,"[2]; Dox 3 mg/kg weekly, Doxil, porous silicon/pDox 6 mg/kg biweekly",initial drop in body weight but recovered shortly
same,extension of median survival over control groups,[3]; pDox 6 mg/kg biweekly,2 weeks
same,Median survival,"[3]; Doxil, pDox, MSV/pDox 6 mg/kg biweekly, tail vein",98.5 days
same,extension of median survival over the PBS control,4T1 lung metastasis [4]; 6 mg/kg weekly for 4 weeks,13 days
same,Median survival after tumor inoculation,4T1 lung metastasis [4]; 6 mg/kg weekly for 4 weeks after surgical removal of primary tumor,62 days
same,lung tumor nodules / metastasis,4T1 lung metastasis [5],"multiple, large tumor nodules in the lung"
same,time of nuclear accumulation after addition of drug,MDA-MB-231 cells,15 min
same,sensitivity of MDR1-expressing cells to treatment,MDA-MB-231/MDR cells,resistant
